Our source for the inhibition values is ChEMBL document CHEMBL5647694, “Novel orally bioavailable EZH1/2 dual inhibitors with greater antitumor efficacy than an EZH2 selective inhibitor” (Cancer Sci, 2017).

Structures are written as SMILES.

Experiment [1] deals with Serine/threonine-protein kinase WNK2 (Homo sapiens) (UniProt Q9Y3S1). Kind of experiment: Inhibition of N-terminal GST-fused human WNK2 catalytic domain (166 to 489 residues) expressed in baculovirus expression system using SPAKtide as substrate at 1 uM in presence of ATP by Mobility shift assay.
Sequence of Serine/threonine-protein kinase WNK2 (Homo sapiens) (Q9Y3S1 whole entry, the tested form may be a part): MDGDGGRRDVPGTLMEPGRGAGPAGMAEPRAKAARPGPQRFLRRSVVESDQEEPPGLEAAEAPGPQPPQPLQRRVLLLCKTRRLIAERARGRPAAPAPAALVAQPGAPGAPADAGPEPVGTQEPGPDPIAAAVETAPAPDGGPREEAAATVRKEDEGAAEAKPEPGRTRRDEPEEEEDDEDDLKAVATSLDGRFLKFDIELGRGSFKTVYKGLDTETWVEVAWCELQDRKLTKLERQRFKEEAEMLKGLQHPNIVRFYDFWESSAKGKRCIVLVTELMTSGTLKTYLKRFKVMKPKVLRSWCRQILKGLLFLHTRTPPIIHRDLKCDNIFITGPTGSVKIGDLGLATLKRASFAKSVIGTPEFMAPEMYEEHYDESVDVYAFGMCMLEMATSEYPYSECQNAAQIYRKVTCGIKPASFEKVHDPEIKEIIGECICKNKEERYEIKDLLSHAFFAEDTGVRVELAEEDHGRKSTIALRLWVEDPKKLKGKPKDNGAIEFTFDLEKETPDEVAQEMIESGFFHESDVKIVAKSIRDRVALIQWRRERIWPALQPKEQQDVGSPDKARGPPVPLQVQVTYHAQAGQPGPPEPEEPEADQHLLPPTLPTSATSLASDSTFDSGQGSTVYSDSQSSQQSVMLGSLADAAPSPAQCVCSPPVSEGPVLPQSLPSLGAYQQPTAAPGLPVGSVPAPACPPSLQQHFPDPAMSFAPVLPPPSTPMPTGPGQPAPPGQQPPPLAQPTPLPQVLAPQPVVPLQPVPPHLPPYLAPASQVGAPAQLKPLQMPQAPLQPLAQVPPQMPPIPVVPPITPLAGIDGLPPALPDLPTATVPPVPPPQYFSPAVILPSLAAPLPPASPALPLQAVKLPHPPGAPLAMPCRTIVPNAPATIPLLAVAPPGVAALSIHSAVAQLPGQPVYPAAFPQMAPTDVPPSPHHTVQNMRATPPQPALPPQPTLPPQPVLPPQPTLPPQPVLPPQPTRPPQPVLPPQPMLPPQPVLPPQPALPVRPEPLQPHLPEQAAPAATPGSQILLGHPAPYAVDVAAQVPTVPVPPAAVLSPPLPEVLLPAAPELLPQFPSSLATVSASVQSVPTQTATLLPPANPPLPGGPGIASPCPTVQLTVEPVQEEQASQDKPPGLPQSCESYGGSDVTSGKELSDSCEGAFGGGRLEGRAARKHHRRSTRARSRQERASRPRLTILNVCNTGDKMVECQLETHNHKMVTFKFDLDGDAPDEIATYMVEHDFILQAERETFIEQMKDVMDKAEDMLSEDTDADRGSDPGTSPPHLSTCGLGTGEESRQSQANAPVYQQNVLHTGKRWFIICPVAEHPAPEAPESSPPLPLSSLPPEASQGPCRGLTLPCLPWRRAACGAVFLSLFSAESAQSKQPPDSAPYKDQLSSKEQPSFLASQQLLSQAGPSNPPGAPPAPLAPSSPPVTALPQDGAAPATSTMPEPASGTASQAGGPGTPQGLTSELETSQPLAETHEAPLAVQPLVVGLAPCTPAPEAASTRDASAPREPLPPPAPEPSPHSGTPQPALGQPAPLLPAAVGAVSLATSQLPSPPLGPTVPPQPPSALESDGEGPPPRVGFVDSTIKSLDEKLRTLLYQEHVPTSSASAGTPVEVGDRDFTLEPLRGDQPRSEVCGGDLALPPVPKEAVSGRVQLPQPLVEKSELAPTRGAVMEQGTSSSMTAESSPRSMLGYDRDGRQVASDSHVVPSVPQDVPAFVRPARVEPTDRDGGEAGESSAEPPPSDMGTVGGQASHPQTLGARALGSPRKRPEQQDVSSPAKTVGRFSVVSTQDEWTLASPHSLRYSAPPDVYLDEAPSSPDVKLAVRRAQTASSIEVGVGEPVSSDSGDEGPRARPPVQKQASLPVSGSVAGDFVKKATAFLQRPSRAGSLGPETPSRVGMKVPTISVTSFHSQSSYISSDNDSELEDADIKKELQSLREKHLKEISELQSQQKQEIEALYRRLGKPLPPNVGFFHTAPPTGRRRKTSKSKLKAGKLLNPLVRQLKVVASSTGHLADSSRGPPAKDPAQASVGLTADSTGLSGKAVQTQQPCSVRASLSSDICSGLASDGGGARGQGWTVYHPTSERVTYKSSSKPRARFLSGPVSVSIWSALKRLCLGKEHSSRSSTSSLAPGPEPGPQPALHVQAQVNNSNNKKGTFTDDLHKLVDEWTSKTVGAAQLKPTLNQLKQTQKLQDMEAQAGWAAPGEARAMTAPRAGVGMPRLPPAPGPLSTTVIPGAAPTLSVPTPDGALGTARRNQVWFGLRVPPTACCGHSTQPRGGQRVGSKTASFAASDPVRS
Experiment [2] concerns the target MAP kinase-activated protein kinase 5 (Homo sapiens) (UniProt Q8IW41). Description: Inhibition of N-terminal GST-fused full length human MAPKAPK5 (1 to 471 residues) expressed in baculovirus expression system using GS peptide as substrate at 1 uM in presence of ATP by Mobility shift assay.
Experiment [3] addresses Protein kinase C beta type (Homo sapiens) (UniProt P05771). Description: Inhibition of N-terminal GST-fused human full length PKC-beta2 (1 to 673 residues ) expressed in baculovirus expression system using PKC peptide as substrate at 1 uM in presence of ATP by Mobility shift assay.
The target in experiment [4] is Testis-specific serine/threonine-protein kinase 3 (Homo sapiens) (UniProt Q96PN8). Kind of experiment: Inhibition of N-terminal GST-fused full length human TSSK3 (2 to 268 residues) expressed in baculovirus expression system using GS peptide as substrate at 1 uM in presence of ATP by Mobility shift assay.
The target of experiment [5] is Receptor-type tyrosine-protein kinase FLT3 (Homo sapiens) (UniProt P36888). Description: Inhibition of N-terminal GST-fused human FLT3 cytoplasmic domain (564 to 993 residues) expressed in baculovirus-infected Sf21 cells using Srctide as substrate at 1 uM in presence of ATP by Mobility shift assay.
Experiment [6] has as its target Calcium/calmodulin-dependent protein kinase type II subunit delta (Homo sapiens) (UniProt Q13557). Kind of experiment: Inhibition of N-terminal GST-tagged full length human CAMK2d (1 to 478 residues) expressed in baculovirus-infected Sf21 cells using GS peptide as substrate at 1 uM in presence of ATP by Mobility shift assay.
The target of experiment [7] is Aurora kinase A/Targeting protein for Xklp2 (Homo sapiens) (UniProt O14965+Q9ULW0). Description: Inhibition of N-terminal GST-fused full length human AurA (1 to 403 residues)/TPX2 expressed in baculovirus-infected Sf21 cells using Kemptide as substrate at 1 uM in presence of ATP by Mobility shift assay.
Experiment [8] addresses Cyclin-dependent kinase 2/cyclin E1 (Homo sapiens) (UniProt P24864+P24941). Kind of experiment: Inhibition of N-terminal GST-tagged full length human CDK2 (1 to 298 residues)/N-terminal GST-tagged human CyclinE1 (1 to 410 residues) expressed in baculovirus-infected Sf21 cells using Modified Histone H1 as substrate at 1 uM in presence of ATP by Mobility shift assay.
Experiment [9] deals with Homeodomain-interacting protein kinase 2 (Homo sapiens) (UniProt Q9H2X6). Description: Inhibition of N-terminal GST-fused full length human HIPK2 (1 to 1198 residues) expressed in baculovirus expression system using DYRKtide-F as substrate at 1 uM in presence of ATP by Mobility shift assay.
Sequence of Homeodomain-interacting protein kinase 2 (Homo sapiens) (Q9H2X6 whole entry, looked up, the tested form may be a part): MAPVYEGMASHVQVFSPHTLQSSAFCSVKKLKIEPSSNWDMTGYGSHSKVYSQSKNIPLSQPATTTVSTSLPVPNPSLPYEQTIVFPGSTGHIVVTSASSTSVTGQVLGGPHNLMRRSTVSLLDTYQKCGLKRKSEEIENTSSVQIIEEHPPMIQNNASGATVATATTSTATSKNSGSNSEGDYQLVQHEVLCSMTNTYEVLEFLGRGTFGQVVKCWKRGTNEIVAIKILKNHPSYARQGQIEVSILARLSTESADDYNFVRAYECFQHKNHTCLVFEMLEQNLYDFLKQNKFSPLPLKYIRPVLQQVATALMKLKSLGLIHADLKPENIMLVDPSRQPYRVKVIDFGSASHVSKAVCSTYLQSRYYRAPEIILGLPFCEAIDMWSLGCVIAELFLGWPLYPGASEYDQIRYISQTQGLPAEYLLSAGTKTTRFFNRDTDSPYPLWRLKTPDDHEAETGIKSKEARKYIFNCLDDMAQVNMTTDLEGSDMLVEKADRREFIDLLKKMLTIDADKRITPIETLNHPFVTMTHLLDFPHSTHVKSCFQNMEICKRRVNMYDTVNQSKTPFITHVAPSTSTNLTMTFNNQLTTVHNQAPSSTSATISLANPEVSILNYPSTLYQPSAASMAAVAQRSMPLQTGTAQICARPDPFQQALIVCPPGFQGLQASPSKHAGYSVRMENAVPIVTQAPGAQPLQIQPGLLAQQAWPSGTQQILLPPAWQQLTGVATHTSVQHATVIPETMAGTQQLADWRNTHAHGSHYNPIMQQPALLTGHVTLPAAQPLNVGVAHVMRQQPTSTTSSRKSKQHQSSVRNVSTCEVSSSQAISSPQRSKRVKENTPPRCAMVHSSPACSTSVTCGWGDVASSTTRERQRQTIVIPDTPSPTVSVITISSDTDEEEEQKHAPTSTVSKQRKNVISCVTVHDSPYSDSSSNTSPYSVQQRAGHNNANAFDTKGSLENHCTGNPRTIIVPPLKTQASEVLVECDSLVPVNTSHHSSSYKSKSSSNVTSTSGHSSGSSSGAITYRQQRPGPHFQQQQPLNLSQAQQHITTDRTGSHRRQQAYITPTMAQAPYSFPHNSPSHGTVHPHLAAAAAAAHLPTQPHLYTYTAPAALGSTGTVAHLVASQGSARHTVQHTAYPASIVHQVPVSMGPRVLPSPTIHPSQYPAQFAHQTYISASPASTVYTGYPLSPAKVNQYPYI
Experiment [10] addresses Mitogen-activated protein kinase 14 (Homo sapiens) (UniProt Q16539). Kind of experiment: Inhibition of N-terminal GST-fused truncated human p38alpha (9 to 352 residues) expressed in Escherichia coli expression system using Modified Erktide as substrate at 1 uM in presence of ATP by Mobility shift assay.
Experiment [11] has as its target Ribosomal protein S6 kinase alpha-6 (Homo sapiens) (UniProt Q9UK32). Description: Inhibition of N-terminal GST-fused human full length RSK4 (1 to 745 residues) expressed in baculovirus expression system using S6K peptide(N-FL) as substrate at 1 uM in presence of ATP by Mobility shift assay.
Experiment [12] deals with Glycogen synthase kinase-3 alpha (Homo sapiens) (UniProt P49840). Kind of experiment: Inhibition of N-terminal GST-fused full length human GSK3-alpha (1 to 483 residues) expressed in baculovirus expression system using CREBtide-p as substrate at 1 uM in presence of ATP by Mobility shift assay.
Experiment [13] concerns the target Mitogen-activated protein kinase kinase kinase kinase 2 (Homo sapiens) (UniProt Q12851). Description: Inhibition of N-terminal GST-fused full length human MAP4K2 (1 to 820 residues) expressed in baculovirus expression system using S6K2 peptide as substrate at 1 uM in presence of ATP by Mobility shift assay.
Experiment [14] concerns the target Mitogen-activated protein kinase kinase kinase kinase 4 (Homo sapiens) (UniProt O95819). Description: Inhibition of N-terminal GST-fused human HGK catalytic domain (1 to 328 residues) expressed in baculovirus expression system using Moesin-derived peptide as substrate at 1 uM in presence of ATP by Mobility shift assay.
In experiment [15] the target is Death-associated protein kinase 1 (Homo sapiens) (UniProt P53355). Description: Inhibition of N-terminal GST-fused human DAPK1 catalytic domain (1 to 289 residues) expressed in baculovirus expression system using DAPK1tide as substrate at 1 uM in presence of ATP by Mobility shift assay.
Experiment [16] deals with Tyrosine-protein kinase Fer (Homo sapiens) (UniProt P16591). Kind of experiment: Inhibition of N-terminal GST-fused full length human FER (1 to 822 residues) expressed in baculovirus-infected Sf21 cells using Srctide as substrate at 1 uM in presence of ATP by Mobility shift assay.
For experiment [17], the target named is Ephrin type-A receptor 7 (Homo sapiens) (UniProt Q15375). Kind of experiment: Inhibition of N-terminal GST-fused human EPHA7 cytoplasmic domain (595 to 998 residues) expressed in baculovirus-infected Sf21 cells using Blk/Lyntide as substrate at 1 uM in presence of ATP by Mobility shift assay.
In experiment [18] the target is Tyrosine-protein kinase receptor TYRO3 (Homo sapiens) (UniProt Q06418). Description: Inhibition of N-terminal GST-tagged human TYRO3 cytoplasmic domain (453 to 890 residues) expressed in baculovirus-infected Sf21 cells using CSKtide as substrate at 1 uM in presence of ATP by Mobility shift assay.
Experiment [19] has as its target Mitogen-activated protein kinase 7 (Homo sapiens) (UniProt Q13164). Kind of experiment: Inhibition of N-terminal GST-fused human ERK5 catalytic domain (1 to 398 residues) expressed in Escherichia coli expression system using EGFR-derived peptide as substrate at 1 uM in presence of ATP by Mobility shift assay.
For experiment [20], the target named is CDK9/cyclin T1 (Homo sapiens) (UniProt O60563+P50750). Kind of experiment: Inhibition of N-terminal GST-fused full length human CDK9 (1 to 372 residues)/human His-CyclinT1 (1 to 726 residues) expressed in baculovirus expression system using CDK9 substrate at 1 uM in presence of ATP by Mobility shift assay.
In experiment [21] the target is CDK4/Cyclin D3 (Homo sapiens) (UniProt P11802+P30281). Description: Inhibition of N-terminal GST-tagged full length human CDK4 (1 to 303 residues)/N-terminal GST-tagged human CyclinD3 (1 to 292 residues) expressed in baculovirus-infected Sf21 cells using DYRKtide-F as substrate at 1 uM in presence of ATP by Mobility shift assay.
In experiment [22] the target is Interleukin-1 receptor-associated kinase 4 (Homo sapiens) (UniProt Q9NWZ3). Description: Inhibition of N-terminal GST-fused full length human IRAK4 (1 to 460 residues) expressed in baculovirus expression system using IRAK1 peptide as substrate at 1 uM in presence of ATP by Mobility shift assay.

Sequence of Mitogen-activated protein kinase kinase kinase kinase 4 (Homo sapiens) (O95819 2-1239 limits assumed): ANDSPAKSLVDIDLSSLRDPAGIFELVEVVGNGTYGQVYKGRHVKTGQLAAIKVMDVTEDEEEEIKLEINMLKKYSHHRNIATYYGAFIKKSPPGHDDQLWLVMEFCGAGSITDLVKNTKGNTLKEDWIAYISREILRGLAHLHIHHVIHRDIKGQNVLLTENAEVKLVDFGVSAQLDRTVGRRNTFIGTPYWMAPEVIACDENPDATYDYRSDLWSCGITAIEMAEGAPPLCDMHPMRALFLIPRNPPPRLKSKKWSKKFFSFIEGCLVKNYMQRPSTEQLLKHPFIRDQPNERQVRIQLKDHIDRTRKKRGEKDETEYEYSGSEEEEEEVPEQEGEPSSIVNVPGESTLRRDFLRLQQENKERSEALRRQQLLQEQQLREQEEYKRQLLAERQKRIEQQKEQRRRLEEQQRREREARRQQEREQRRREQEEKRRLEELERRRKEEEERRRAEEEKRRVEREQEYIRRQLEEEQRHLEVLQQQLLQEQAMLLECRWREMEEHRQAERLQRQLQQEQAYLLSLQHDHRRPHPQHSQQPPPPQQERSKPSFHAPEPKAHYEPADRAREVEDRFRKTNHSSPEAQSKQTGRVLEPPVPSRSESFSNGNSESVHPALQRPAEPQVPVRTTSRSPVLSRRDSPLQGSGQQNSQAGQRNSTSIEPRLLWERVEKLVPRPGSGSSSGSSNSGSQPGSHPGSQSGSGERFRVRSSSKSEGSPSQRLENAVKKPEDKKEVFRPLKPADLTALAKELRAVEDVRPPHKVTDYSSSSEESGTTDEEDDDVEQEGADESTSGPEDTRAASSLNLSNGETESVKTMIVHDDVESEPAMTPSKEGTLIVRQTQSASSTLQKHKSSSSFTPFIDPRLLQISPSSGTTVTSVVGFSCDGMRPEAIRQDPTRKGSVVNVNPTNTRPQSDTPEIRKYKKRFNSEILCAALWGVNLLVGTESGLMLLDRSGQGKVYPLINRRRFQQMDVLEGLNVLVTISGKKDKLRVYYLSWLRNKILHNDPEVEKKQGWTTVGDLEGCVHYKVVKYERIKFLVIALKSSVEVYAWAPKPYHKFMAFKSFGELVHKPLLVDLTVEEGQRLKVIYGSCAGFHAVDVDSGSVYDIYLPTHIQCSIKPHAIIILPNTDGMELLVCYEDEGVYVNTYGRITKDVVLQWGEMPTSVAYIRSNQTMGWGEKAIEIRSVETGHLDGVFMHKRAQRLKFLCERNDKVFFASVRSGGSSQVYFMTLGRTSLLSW
Sequence of Mitogen-activated protein kinase 14 (Homo sapiens) (Q16539 whole entry, the tested form may be a part): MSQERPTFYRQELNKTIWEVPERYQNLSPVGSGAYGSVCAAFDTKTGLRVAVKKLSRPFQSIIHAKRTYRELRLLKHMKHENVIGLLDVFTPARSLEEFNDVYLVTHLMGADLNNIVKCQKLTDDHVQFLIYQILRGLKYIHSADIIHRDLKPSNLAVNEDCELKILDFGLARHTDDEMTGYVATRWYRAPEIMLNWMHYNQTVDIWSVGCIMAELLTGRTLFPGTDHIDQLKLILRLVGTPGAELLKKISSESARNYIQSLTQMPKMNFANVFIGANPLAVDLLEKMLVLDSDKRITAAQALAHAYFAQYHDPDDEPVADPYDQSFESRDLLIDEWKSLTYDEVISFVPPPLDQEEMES

Broadly, the inhibition is the change of the read-out against control, counted positive when it falls. On to `Cc1cc(C)c(CNC(=O)c2cc(Br)c3c(c2C)O[C@@](C)([C@H]2CC[C@H](N(C)C)CC2)O3)c(=O)[nH]1`, for which the inhibition is -2.1% in experiment [1]; -3.1% in [2]; 3.2% in experiment [3]; 12.1% in experiment [4]; -2.6% in experiment [5]; -1.4% in experiment [6]. The inhibition in experiment [7] is -4.6%; in experiment [8], 19.9%; in experiment [9], -1.4%; in experiment [10] it was -7.2%; in [11], -2.5%; in experiment [12], 1.8%. Moreover, the inhibition in experiment [13] is 4.5%; in experiment [14], -0.2%; in experiment [15], 3.4%; in [16], 0.1%; in experiment [17], -3.3%; in experiment [18], 0.9%. The inhibition in experiment [19] is -2.5%; in [20], -5.3%; in experiment [21], -4.5%; in experiment [22], -5.6%.
With `Cc1cc(C)c(CNC(=O)c2cc(Cl)c3c(c2C)O[C@@](C)([C@H]2CC[C@H](N(C)C)CC2)O3)c(=O)[nH]1` [VALEMETOSTAT], the inhibition in experiment [1] is -3.7%; in [2], -5.7%; in [3], -1.1%; in [4] it was 7.3%; in [5] it was -1.5%; in [6] it was -4.5%. For the same compound, the inhibition in experiment [7] is -6.8%; in experiment [8], -2.1%; in experiment [9] it was 3.1%; in experiment [10] it was -8%; in experiment [11], -0.5%; in experiment [12], 1.9%. Also, the inhibition was 2.3% in [13]; 0.4% in experiment [14]; 14.9% in [15]; -3.7% in [16]; -1.9% in experiment [17]; -2.6% in [18]. Moreover, the inhibition was -2.3% in experiment [19], 4.3% in experiment [20], 2.1% in [21] and -4.1% in experiment [22].
